Measurements taken from ChEMBL document CHEMBL1649565, “Besifloxacin, a novel fluoroquinolone, has broad-spectrum in vitro activity against aerobic and anaerobic bacteria” (Antimicrob Agents Chemother, 2009).
≈ marks a conversion by molar mass, not a printed value. Calls of active or inactive are those of the source. The calls are words filed in the database; no cut-off is given here.

Tests used:
[1] = test system: Staphylococcus epidermidis; assay: Antibacterial activity against non-ciprofloxacin-susceptible and methicillin-susceptible Staphylococcus epidermidis assessed as percent susceptible isolates by CLSI M100-S18 method; assay type: functional
[2] = test system: Pseudomonas aeruginosa; assay: Antibacterial activity against non-ciprofloxacin-susceptible Pseudomonas aeruginosa assessed as percent susceptible isolates by CLSI M7-A7 method; assay type: functional
[3] = test system: Neisseria meningitidis; assay: Antibacterial activity against Neisseria meningitidis by CLSI M7-A7 method; assay type: functional
[4] = Antibacterial activity against Lancefield Streptococcus sp. 'group G' by CLSI M100-S18 method; assay type: functional
[5] = test system: Staphylococcus saprophyticus; assay: Antibacterial activity against Staphylococcus saprophyticus assessed as percent susceptible isolates by CLSI M100-S18 method; assay type: functional
[6] = test system: Streptococcus pneumoniae; assay: Antibacterial activity against levofloxacin-susceptible Streptococcus pneumoniae by CLSI M100-S18 method; assay type: functional
[7] = test system: Acinetobacter calcoaceticus; assay: Antibacterial activity against Acinetobacter calcoaceticus assessed as percent susceptible isolates by CLSI M7-A7 method; assay type: functional
[8] = test system: Haemophilus influenzae; assay: Antibacterial activity against non-ciprofloxacin-susceptible Haemophilus influenzae assessed as percent susceptible isolates by CLSI M7-A7 method; assay type: functional
[9] = test system: Legionella pneumophila; assay: Antibacterial activity against Legionella pneumophila by CLSI M7-A7 method; assay type: functional
[10] = test system: Staphylococcus lugdunensis; assay: Antibacterial activity against Staphylococcus lugdunensis assessed as percent susceptible isolates by CLSI M100-S18 method; assay type: functional
[11] = test system: Acinetobacter lwoffii; assay: Antibacterial activity against Acinetobacter lwoffii assessed as percent susceptible isolates by CLSI M7-A7 method; assay type: functional
[12] = test system: Moraxella catarrhalis; assay: Antibacterial activity against Moraxella catarrhalis assessed as percent susceptible isolates by CLSI M7-A7 method; assay type: functional
[13] = test system: Citrobacter koseri; assay: Antibacterial activity against Citrobacter koseri by CLSI M7-A7 method; assay type: functional
[14] = Antibacterial activity against Lancefield Streptococcus sp. 'group C' by CLSI M100-S18 method; assay type: functional
[15] = test system: Pseudomonas aeruginosa; assay: Antibacterial activity against ciprofloxacin-susceptible Pseudomonas aeruginosa assessed as percent susceptible isolates by CLSI M7-A7 method; assay type: functional
[16] = test system: Staphylococcus aureus; assay: Antibacterial activity against non-ciprofloxacin-susceptible and methicillin-susceptible Staphylococcus aureus assessed as percent susceptible isolates by CLSI M100-S18 method; assay type: functional
[17] = test system: Enterococcus faecium; assay: Antibacterial activity against vancomycin- resistant Enterococcus faecium assessed as percent susceptible isolates by CLSI M100-S18 method; assay type: functional
[18] = test system: Enterobacter cloacae; assay: Antibacterial activity against Enterobacter cloacae assessed as percent susceptible isolates by CLSI M7-A7 method; assay type: functional
[19] = test system: Serratia marcescens; assay: Antibacterial activity against Serratia marcescens by CLSI M7-A7 method; assay type: functional
[20] = test system: Citrobacter freundii; assay: Antibacterial activity against Citrobacter freundii by CLSI M7-A7 method; assay type: functional
[21] = test system: Staphylococcus epidermidis
[22] = test system: Streptococcus sp.; assay: Antibacterial activity against Lancefield Streptococcus sp. group F by CLSI M100-S18 method; assay type: functional
[23] = test system: Acinetobacter lwoffii; assay: Antibacterial activity against Acinetobacter lwoffii by CLSI M7-A7 method; assay type: functional
[24] = test system: Listeria monocytogenes; assay: Antibacterial activity against Listeria monocytogenes by CLSI M100-S18 method; assay type: functional
[25] = test system: Staphylococcus hominis; assay: Antibacterial activity against Staphylococcus hominis by CLSI M100-S18 method; assay type: functional
[26] = test system: Stenotrophomonas maltophilia; assay: Antibacterial activity against levofloxacin-susceptible Stenotrophomonas maltophilia assessed as assessed as percent susceptible isolates by CLSI M7-A7 method; assay type: functional
[27] = test system: Acinetobacter baumannii; assay: Antibacterial activity against Acinetobacter baumannii assessed as percent susceptible isolates by CLSI M7-A7 method; assay type: functional
[28] = test system: Haemophilus influenzae; assay: Antibacterial activity against non-ciprofloxacin-susceptible Haemophilus influenzae by CLSI M7-A7 method; assay type: functional
[29] = test system: Proteus vulgaris; assay: Antibacterial activity against Proteus vulgaris by CLSI M7-A7 method; assay type: functional
[30] = test system: Stenotrophomonas maltophilia; assay: Antibacterial activity against non-levofloxacin susceptible Stenotrophomonas maltophilia assessed as percent susceptible isolates by CLSI M7-A7 method; assay type: functional
[31] = test system: Streptococcus constellatus; assay: Antibacterial activity against Streptococcus constellatus by CLSI M100-S18 method; assay type: functional
[32] = test system: Staphylococcus aureus; assay: Antibacterial activity against non-ciprofloxacin-susceptible and methicillin-susceptible Staphylococcus aureus by CLSI M100-S18 method; assay type: functional
[33] = test system: Streptococcus mitis; assay: Antibacterial activity against Streptococcus mitis by CLSI M100-S18 method; assay type: functional
[34] = test system: Streptococcus constellatus; assay: Antibacterial activity against Streptococcus constellatus assessed as percent susceptible isolates by CLSI M100-S18 method; assay type: functional
[35] = test system: Streptococcus anginosus; assay: Antibacterial activity against Streptococcus anginosus assessed as percent susceptible isolates by CLSI M100-S18 method; assay type: functional
[36] = test system: Streptococcus mitis; assay: Antibacterial activity against Streptococcus mitis assessed as percent susceptible isolates by CLSI M100-S18 method; assay type: functional
[37] = test system: Streptococcus oralis; assay: Antibacterial activity against Streptococcus oralis assessed as percent susceptible isolates by CLSI M100-S18 method; assay type: functional
[38] = test system: Streptococcus salivarius; assay: Antibacterial activity against Streptococcus salivarius assessed as percent susceptible isolates by CLSI M100-S18 method; assay type: functional
[39] = test system: Streptococcus equinus; assay: Antibacterial activity against Streptococcus bovis assessed as percent susceptible isolates by CLSI M100-S18 method; assay type: functional
[40] = test system: Streptococcus intermedius; assay: Antibacterial activity against Streptococcus intermedius assessed as percent susceptible isolates by CLSI M100-S18 method; assay type: functional
[41] = test system: Streptococcus sanguinis; assay: Antibacterial activity against Streptococcus sanguinis assessed as percent susceptible isolates by CLSI M100-S18 method; assay type: functional

Question: What does the source list for `C[C@H]1COc2c(N3CCN(C)CC3)c(F)cc3c(=O)c(C(=O)O)cn1c23.C[C@H]1COc2c(N3CCN(C)CC3)c(F)cc3c(=O)c(C(=O)O)cn1c23.O` [LEVOFLOXACIN]?
Answer: Activity [1]: 0%; Activity [2]: 1%; MIC50 [3]: 0.008 µg/mL; MIC90 [3]: 0.015 µg/mL; MIC50 [4]: 0.5 µg/mL; MIC90 [4]: 0.5 µg/mL; Activity [5]: 100%; MIC50 [6]: 0.5 µg/mL; MIC90 [6]: 0.5 µg/mL; Activity [7]: 66.7%; Activity [8]: 27.3%; MIC50 [9]: 0.03 µg/mL; MIC90 [9]: 0.03 µg/mL; Activity [10]: 66.7%; Activity [11]: 86%; Activity [12]: 100%; MIC50 [13]: 0.03 µg/mL; MIC90 [13]: 0.12 µg/mL; MIC50 [14]: 0.5 µg/mL; MIC90 [14]: 0.5 µg/mL; Activity [15]: 96.2%; Activity [16]: 0%; Activity [17]: 30.9%; Activity [18]: 92%; MIC50 [19]: 0.12 µg/mL; MIC90 [19]: 0.5 µg/mL; MIC50 [20]: 0.06 µg/mL; MIC90 [20]: 2 µg/mL; MIC90 [21]: inactive; MIC50 [22]: 0.5 µg/mL; MIC90 [22]: 0.5 µg/mL; MIC50 [23]: 0.12 µg/mL; MIC90 [23]: 4 µg/mL; MIC50 [24]: 0.5 µg/mL; MIC90 [24]: 1 µg/mL; MIC50 [25]: 8 µg/mL; MIC90 [25]: > 8 µg/mL; Activity [26]: 0%; Activity [27]: 37.7%; MIC50 [28]: 8 µg/mL; MIC90 [28]: 16 µg/mL; MIC50 [29]: 0.03 µg/mL; MIC90 [29]: 0.06 µg/mL; Activity [30]: 100%; MIC50 [31]: 1 µg/mL; MIC90 [31]: 4 µg/mL; MIC50 [32]: > 8 µg/mL; MIC90 [32]: > 8 µg/mL; MIC50 [33]: 1 µg/mL; MIC90 [33]: 4 µg/mL

Question: What does the source list for `NC[C@H]1O[C@H](O[C@H]2[C@H](O)[C@@H](O[C@H]3O[C@H](CO)[C@@H](O)[C@H](N)[C@H]3O)[C@H](N)C[C@@H]2N)[C@H](N)C[C@@H]1O` [TOBRAMYCIN]?
Answer: Activity [1]: 16.7%; Activity [34]: 95.5%; Activity [2]: 44.8%; Activity [35]: 95.5%; MIC50 [4]: 0.06 µg/mL (≈ 0.128 µM); MIC90 [4]: > 8 µg/mL; Activity [5]: 54.5%; MIC50 [6]: 8 µg/mL (≈ 17.1 µM); MIC90 [6]: 16 µg/mL (≈ 34.2 µM); Activity [7]: 92.6%; Activity [8]: inactive; MIC50 [9]: 0.12 µg/mL (≈ 0.257 µM); MIC90 [9]: 1 µg/mL (≈ 2.14 µM); Activity [10]: 46.7%; Activity [36]: 95.5%; Activity [11]: 94%; Activity [12]: 100%; Activity [37]: 95.5%; MIC50 [13]: 0.5 µg/mL (≈ 1.07 µM); MIC90 [13]: 1 µg/mL (≈ 2.14 µM); MIC50 [14]: 0.06 µg/mL (≈ 0.128 µM); MIC90 [14]: > 8 µg/mL; Activity [15]: 95.2%; Activity [16]: 27.3%; Activity [38]: 95.5%; Activity [18]: 100%; MIC50 [19]: 0.5 µg/mL (≈ 1.07 µM); MIC90 [19]: 1 µg/mL (≈ 2.14 µM); MIC50 [20]: 0.25 µg/mL (≈ 0.535 µM); MIC90 [20]: 0.5 µg/mL (≈ 1.07 µM); MIC90 [21]: inactive; MIC50 [22]: 0.06 µg/mL (≈ 0.128 µM); MIC90 [22]: > 8 µg/mL; Activity [39]: 95.5%; Activity [40]: 95.5%; MIC50 [23]: 0.06 µg/mL (≈ 0.128 µM); MIC90 [23]: 0.5 µg/mL (≈ 1.07 µM); MIC50 [24]: 0.12 µg/mL (≈ 0.257 µM); MIC90 [24]: 0.12 µg/mL (≈ 0.257 µM); MIC50 [25]: 16 µg/mL (≈ 34.2 µM); MIC90 [25]: 32 µg/mL (≈ 68.4 µM); Activity [26]: 1.9%; Activity [41]: 95.5%; Activity [27]: 60.4%; MIC50 [28]: 4 µg/mL (≈ 8.56 µM); MIC90 [28]: 8 µg/mL (≈ 17.1 µM); MIC50 [29]: 1 µg/mL (≈ 2.14 µM); MIC90 [29]: 4 µg/mL (≈ 8.56 µM); Activity [30]: 0%; MIC50 [31]: 0.06 µg/mL (≈ 0.128 µM); MIC90 [31]: > 8 µg/mL; MIC50 [32]: 1 µg/mL (≈ 2.14 µM); MIC90 [32]: > 32 µg/mL; MIC50 [33]: 0.06 µg/mL (≈ 0.128 µM); MIC90 [33]: > 8 µg/mL
